Data as given in patent US11304946B2, “2-hetarylpyrimidine-4-carboxamides as aryl hydrocarbon receptor antagonists” (Bayer Aktiengesellschaft, priority 2017, dated 2022).

Assays:
Mouse AhR = target: T1, Mouse AhR (Mus musculus, UniProt P30561); assay: Transactivation assay in mouse cell line (in vitro assay 2: antagonism); format: cell-based; settings: Hepa 1c1c7 cells, AHR inducible (DRE) firefly luciferase reporter, 200 μM kynurenic acid, 20 hours
T1 sequence (P30561 1-848): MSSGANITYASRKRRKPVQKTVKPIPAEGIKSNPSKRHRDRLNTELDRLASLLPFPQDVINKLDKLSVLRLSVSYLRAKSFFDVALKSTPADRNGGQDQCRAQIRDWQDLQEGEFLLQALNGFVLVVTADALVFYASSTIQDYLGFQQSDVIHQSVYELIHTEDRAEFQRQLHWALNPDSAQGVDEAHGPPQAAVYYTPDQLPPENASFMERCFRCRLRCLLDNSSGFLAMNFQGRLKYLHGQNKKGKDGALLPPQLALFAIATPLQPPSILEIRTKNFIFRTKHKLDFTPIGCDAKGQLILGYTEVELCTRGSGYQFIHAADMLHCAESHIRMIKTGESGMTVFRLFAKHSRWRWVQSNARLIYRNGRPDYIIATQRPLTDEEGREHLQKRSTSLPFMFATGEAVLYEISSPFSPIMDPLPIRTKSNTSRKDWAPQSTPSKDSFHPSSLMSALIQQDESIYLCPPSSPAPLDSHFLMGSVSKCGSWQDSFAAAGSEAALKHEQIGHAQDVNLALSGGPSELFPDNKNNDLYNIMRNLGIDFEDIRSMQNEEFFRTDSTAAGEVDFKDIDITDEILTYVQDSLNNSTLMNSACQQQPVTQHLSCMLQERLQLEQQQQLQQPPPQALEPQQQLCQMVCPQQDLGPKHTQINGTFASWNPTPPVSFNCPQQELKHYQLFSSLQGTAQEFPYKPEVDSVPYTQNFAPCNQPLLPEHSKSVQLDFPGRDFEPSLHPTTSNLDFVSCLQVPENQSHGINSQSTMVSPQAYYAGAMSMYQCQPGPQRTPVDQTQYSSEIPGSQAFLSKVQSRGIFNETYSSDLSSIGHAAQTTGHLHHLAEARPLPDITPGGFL
Method in brief: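 Hepa 1c1c7 cells express AhR endogenously and stably carry a DRE-driven firefly luciferase reporter. They were prestimulated with the agonist kynurenic acid before compound testing for antagonism. Luciferase read by SteadyGlo luminescence.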

Human AhR = target: T2, Human AhR (Homo sapiens, UniProt P35869); assay: Transactivation assay in human cell line (in vitro assay 1: antagonism); format: cell-based; settings: U87 glioblastoma cells, AHR inducible (DRE) firefly luciferase reporter, 150 μM kynurenic acid, 20 hours
T2 construct: host or cells: U87 glioblastoma cells, stably transfected with DRE-driven firefly luciferase and constitutive renilla reporter constructs
T2 sequence (P35869 11-848): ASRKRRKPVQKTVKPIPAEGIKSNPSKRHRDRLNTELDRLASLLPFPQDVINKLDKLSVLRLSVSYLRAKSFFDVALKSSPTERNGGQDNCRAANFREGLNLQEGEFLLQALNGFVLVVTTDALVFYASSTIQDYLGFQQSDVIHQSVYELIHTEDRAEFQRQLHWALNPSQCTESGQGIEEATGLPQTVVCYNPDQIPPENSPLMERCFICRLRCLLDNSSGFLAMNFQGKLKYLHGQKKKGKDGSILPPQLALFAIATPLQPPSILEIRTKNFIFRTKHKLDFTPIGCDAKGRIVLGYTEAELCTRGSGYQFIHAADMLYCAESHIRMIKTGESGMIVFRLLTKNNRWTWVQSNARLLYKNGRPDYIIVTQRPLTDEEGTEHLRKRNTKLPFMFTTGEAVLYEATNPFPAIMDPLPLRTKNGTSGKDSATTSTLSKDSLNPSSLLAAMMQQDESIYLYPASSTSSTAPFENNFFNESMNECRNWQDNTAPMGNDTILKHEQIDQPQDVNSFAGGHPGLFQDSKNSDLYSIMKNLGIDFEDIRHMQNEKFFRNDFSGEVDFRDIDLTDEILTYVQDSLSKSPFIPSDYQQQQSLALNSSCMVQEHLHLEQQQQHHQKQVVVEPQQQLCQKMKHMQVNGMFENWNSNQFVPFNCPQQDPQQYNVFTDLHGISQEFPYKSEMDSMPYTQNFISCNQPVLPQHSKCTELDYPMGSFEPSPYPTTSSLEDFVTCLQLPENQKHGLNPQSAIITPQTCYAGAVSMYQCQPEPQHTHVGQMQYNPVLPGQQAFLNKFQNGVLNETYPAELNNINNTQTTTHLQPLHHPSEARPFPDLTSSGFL
Method in brief: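 U87 glioblastoma cells with endogenous AHR, stably carrying DRE-driven firefly luciferase and constitutive Renilla reporters, prestimulated with kynurenic acid before compound. Dual luciferase read-out; Renilla signal used to flag toxicity.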

SMILES | IC50 (Mouse AhR) | IC50 (Human AhR)
COc1ccncc1-c1nc(C(=O)N[C@@H](C)CO)cc(-c2ccc(OC(F)(F)F)cc2)n1 [Example 40, N-[(2S)-1-hydroxypropan-2-yl]-2-(4-methoxypyridin-3-yl)-6-[4-(trifluoromethoxy)phenyl]pyrimidine-4-carboxamide] | 42.6 nM | 4.24 nM
C[C@H](NC(=O)c1cc(-c2ccc(C(F)F)cc2)nc(-c2cccnc2)n1)C(C)(C)O [Example 119, 6-[4-(difluoromethyl)phenyl]-N-[(2S)-3-hydroxy-3-methylbutan-2-yl]-2-(pyridin-3-yl)pyrimidine-4-carboxamide] | 6.81 nM | 2.88 nM
C[C@@H](CO)NC(=O)c1cc(-c2ccc(OC(F)(F)F)cc2)nc(-c2cnn(C)c2)n1 [Example 5, N-[(2S)-1-hydroxypropan-2-yl]-2-(1-methyl-1H-pyrazol-4-yl)-6-[4-(trifluoromethoxy)phenyl]pyrimidine-4-carboxamide] | 2.92 nM | 3.68 nM
Cn1nccc1-c1nc(C(=O)NCC(C)(C)O)cc(-c2ccc(Cl)cc2)n1 [Example 54, 6-(4-chlorophenyl)-N-(2-hydroxy-2-methylpropyl)-2-(1-methyl-1H-pyrazol-5-yl)pyrimidine-4-carboxamide] | 41.1 nM | 36.6 nM
Cc1nn(C)cc1-c1nc(C(=O)N[C@@H](C)CO)cc(-c2ccc(Cl)cc2)n1 [Example 83, 6-(4-chlorophenyl)-2-(1,3-dimethyl-1H-pyrazol-4-yl)-N-[(2S)-1-hydroxypropan-2-yl]pyrimidine-4-carboxamide] | 1510 nM | 54.2 nM
C[C@H](CO)NC(=O)c1cc(-c2ccc(Cl)cc2)nc(-c2cnn(C)c2)n1 [Example 12, 6-(4-chlorophenyl)-N-[(2R)-1-hydroxypropan-2-yl]-2-(1-methyl-1H-pyrazol-4-yl)pyrimidine-4-carboxamide] | 206 nM | 73.4 nM
C[C@@H](CO)NC(=O)c1cc(-c2ccc(Cl)cc2)nc(-c2cccnc2)n1 [Example 9, 6-(4-chlorophenyl)-N-[(2S)-1-hydroxypropan-2-yl]-2-(pyridin-3-yl)pyrimidine-4-carboxamide] | 2.84 nM | 1.1 nM
Cn1cc(-c2nc(C(=O)NC3CCCC(F)(F)C3O)cc(-c3ccc(OC(F)(F)F)cc3)n2)cn1 (stereo not shown) [Example 106, N-(3,3-difluoro-2-hydroxycyclohexyl)-2-(1-methyl-1H-pyrazol-4-yl)-6-[4-(trifluoromethoxy)phenyl]pyrimidine-4-carboxamide] | 20 nM | 7.32 nM
Cn1cc(-c2nc(C(=O)NC(CO)C3CCC3)cc(-c3ccc(OC(F)(F)F)cc3)n2)cn1 (stereo not shown) [Example 94, N-(1-cyclobutyl-2-hydroxyethyl)-2-(1-methyl-1H-pyrazol-4-yl)-6-[4-(trifluoromethoxy)phenyl]pyrimidine-4-carboxamide] | 24.3 nM | 5.44 nM
CC(C)(O)CNC(=O)c1cc(-c2ccc(OC(F)(F)F)cc2)nc(-c2cnoc2)n1 [Example 22, N-(2-hydroxy-2-methylpropyl)-2-(1,2-oxazol-4-yl)-6-[4-(trifluoromethoxy)phenyl]pyrimidine-4-carboxamide] | 5530 nM | 1100 nM
CC(C)(O)CNC(=O)c1cc(-c2ccc(Cl)cc2)nc(-c2ccc(C#N)s2)n1 [Example 47, 6-(4-chlorophenyl)-2-(5-cyanothiophen-2-yl)-N-(2-hydroxy-2-methylpropyl)pyrimidine-4-carboxamide] | 961 nM | 317 nM
C[C@@H](CO)NC(=O)c1cc(-c2ccc(C(F)(F)F)cc2)nc(-c2cccnc2)n1 [Example 117, N-[(2S)-1-hydroxypropan-2-yl]-2-(pyridin-3-yl)-6-[4-(trifluoromethyl)phenyl]pyrimidine-4-carboxamide] | 1.33 nM | 1.26 nM
Cc1noc(C)c1-c1nc(C(=O)N[C@@H](C)CO)cc(-c2ccc(OC(F)(F)F)cc2)n1 [Example 35, 2-(3,5-dimethyl-1,2-oxazol-4-yl)-N-[(2S)-1-hydroxypropan-2-yl]-6-[4-(trifluoromethoxy)phenyl]pyrimidine-4-carboxamide] | 5310 nM | 1030 nM
Cn1cc(-c2nc(C(=O)NCC(C)(C)O)cc(-c3ccc(C(F)(F)F)cc3)n2)cn1 [Example 8, N-(2-hydroxy-2-methylpropyl)-2-(1-methyl-1H-pyrazol-4-yl)-6-[4-(trifluoromethyl)phenyl]pyrimidine-4-carboxamide] | 7.19 nM | 2.57 nM
